Data reported in the supplement of paper PMC9663587.

Key:
Paclitaxel = compound: CC(=O)O[C@H]1C(=O)[C@@]2(C)[C@H]([C@H](OC(=O)c3ccccc3)[C@]3(O)C[C@H](OC(=O)[C@H](O)[C@@H](NC(=O)c4ccccc4)c4ccccc4)C(C)=C1C3(C)C)[C@]1(OC(C)=O)CO[C@@H]1C[C@@H]2O [Paclitaxel]
Ipatasertib/GDC0068 = compound: CC(C)NC[C@@H](C(=O)N1CCN(c2ncnc3c2[C@H](C)C[C@H]3O)CC1)c1ccc(Cl)cc1 [Ipatasertib/GDC0068]
Luminespib/NVP-AUY922 = compound: CCNC(=O)c1noc(-c2cc(C(C)C)c(O)cc2O)c1-c1ccc(CN2CCOCC2)cc1 [Luminespib/NVP-AUY922]
BSJ-01-175 = compound: CN(C)C/C=C/C(=O)Nc1ccc(O[C@@H]2CCC[C@@H](Nc3ncc(Cl)c(-c4c[nH]c5ccccc45)n3)C2)cc1 [BSJ-01-175]
ABT-737 = compound: CN(C)CC[C@H](CSc1ccccc1)Nc1ccc(S(=O)(=O)NC(=O)c2ccc(N3CCN(Cc4ccccc4-c4ccc(Cl)cc4)CC3)cc2)cc1[N+](=O)[O-] [ABT-737]
Flavopiridol [1] = compound: T1, CN1CC[C@H](c2c(O)cc(O)c3c(=O)cc(-c4ccccc4Cl)oc23)[C@H](O)C1 [Flavopiridol]
Doxorubicin = compound: COc1cccc2c1C(=O)c1c(O)c3c(c(O)c1C2=O)C[C@@](O)(C(=O)CO)C[C@@H]3O[C@H]1C[C@H](N)[C@H](O)[C@H](C)O1 [Doxorubicin]
Taselisib/GDC0032 = compound: Cc1nc(-c2cn3c(n2)-c2ccc(-c4cnn(C(C)(C)C(N)=O)c4)cc2OCC3)n(C(C)C)n1 [Taselisib/GDC0032]
Olaparib/AZD2281 = compound: O=C(c1cc(Cc2n[nH]c(=O)c3ccccc23)ccc1F)N1CCN(C(=O)C2CC2)CC1 [Olaparib/AZD2281]
YKL-5-124 = compound: C=CC(=O)Nc1ccc(C(=O)Nc2[nH]nc3c2CN(C(=O)N[C@H](CN(C)C)c2ccccc2)C3(C)C)cc1 [YKL-5-124]; experiment: GR value, 72 h; higher = faster growth (1 = untreated, <0 = killing);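 also: breast cancer and non-malignant breast epithelial lines, nine half-log doses, viable cells counted by Hoechst and LIVE/DEAD dye imaging versus time-zero plates and DMSO controls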
BSJ-03-123 = compound: CC(=O)c1c(C)c2cnc(Nc3ccc(N4CCN(CCOCCOCCOCCNC(=O)COc5cccc6c5C(=O)N(C5CCC(=O)NC5=O)C6=O)CC4)cn3)nc2n(C2CCCC2)c1=O [BSJ-03-123]; experiment: as above
[2] = compound: CC(=O)c1c(C)c2cnc(Nc3ccc(N4CCNCC4)cn3)nc2n(C2CCCC2)c1=O; experiment: as above
[3] = compound: CCN1CCN(Cc2ccc(Nc3ncc(F)c(-c4cc(F)c5nc(C)n(C(C)C)c5c4)n3)nc2)CC1; experiment: as above
[4] = compound: CCc1cnn2c(NCc3ccc[n+]([O-])c3)cc(N3CCCC[C@H]3CCO)nc12; experiment: as above
LEE011/Ribociclib = compound: CN(C)C(=O)c1cc2cnc(Nc3ccc(N4CCNCC4)cn3)nc2n1C1CCCC1 [LEE011/Ribociclib]; experiment: as above
THZ531 = compound: CN(C)C/C=C/C(=O)Nc1ccc(C(=O)N2CCC[C@@H](Nc3ncc(Cl)c(-c4c[nH]c5ccccc45)n3)C2)cc1 [THZ531]; experiment: as above
Flavopiridol [5] = compound: T1, Flavopiridol; experiment: as above
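For GR50, 72 h in this document: breast cancer and non-malignant breast epithelial cell lines, Deep Dye Drop or Dye Drop imaging, nine half-log doses, GR normalized to time-zero plates and DMSO-only controls.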

In the case of PDX1328, the “GR50, 72 h” value (Paclitaxel) was 0.00287 µM, the “GR50, 72 h” value (Ipatasertib/GDC0068) was > 10 µM and the “GR50, 72 h” value (Luminespib/NVP-AUY922) was 0.00288 µM. For the same cell line, the “GR50, 72 h” value (BSJ-01-175) was 0.00722 µM, the “GR50, 72 h” value (ABT-737) was 1.56 µM and the “GR50, 72 h” value (Flavopiridol [1]) was 0.181 µM. For the same cell line, the “GR50, 72 h” value (Doxorubicin) was 0.024 µM, the “GR50, 72 h” value (Taselisib/GDC0032) was 0.0544 µM and the “GR50, 72 h” value (Olaparib/AZD2281) was > 10 µM. The GR value (YKL-5-124; 0.001 µM) was 0.525 GR, the GR value (YKL-5-124; 0.003162 µM) was 0.572 GR and the GR value (YKL-5-124; 0.01 µM) was 0.406 GR. It also gave a GR value (YKL-5-124; 0.03162 µM) of 0.424 GR, a GR value (YKL-5-124; 0.1 µM) of 0.45 GR and a GR value (YKL-5-124; 0.3162 µM) of 0.301 GR. For the same cell line, the GR value (YKL-5-124; 1 µM) was 0.351 GR, the GR value (YKL-5-124; 3.162 µM) was 0.295 GR and the GR value (YKL-5-124; 10 µM) was -0.0349 GR. It also gave a GR value (BSJ-03-123; 0.001 µM) of 0.951 GR, a GR value (BSJ-03-123; 0.003162 µM) of 0.816 GR and a GR value (BSJ-03-123; 0.01 µM) of 0.819 GR. The GR value (BSJ-03-123; 0.03162 µM) was 0.792 GR, the GR value (BSJ-03-123; 0.1 µM) was 0.852 GR and the GR value (BSJ-03-123; 0.3162 µM) was 0.646 GR. It also gave a GR value (BSJ-03-123; 1 µM) of 0.479 GR, a GR value (BSJ-03-123; 3.162 µM) of 0.531 GR and a GR value (BSJ-03-123; 10 µM) of 0.0901 GR. The GR value ([2]; 0.0003162 µM) was 1.04 GR, the GR value ([2]; 0.001 µM) was 1.1 GR and the GR value ([2]; 0.003162 µM) was 1.06 GR. The GR value ([2]; 0.01 µM) was 0.938 GR, the GR value ([2]; 0.03162 µM) was 0.751 GR and the GR value ([2]; 0.1 µM) was 0.557 GR. It also gave a GR value ([2]; 0.3162 µM) of 0.518 GR, a GR value ([2]; 1 µM) of 0.414 GR and a GR value ([2]; 3.162 µM) of 0.399 GR. It also gave a GR value ([3]; 0.001 µM) of 0.866 GR, a GR value ([3]; 0.003162 µM) of 0.775 GR and a GR value ([3]; 0.01 µM) of 0.537 GR. The GR value ([3]; 0.03162 µM) was 0.323 GR, the GR value ([3]; 0.1 µM) was 0.266 GR and the GR value ([3]; 0.3162 µM) was 0.301 GR. For the same cell line, the GR value ([3]; 1 µM) was 0.263 GR, the GR value ([3]; 3.162 µM) was 0.176 GR and the GR value ([3]; 10 µM) was -0.621 GR. It also gave a GR value ([4]; 0.0001 µM) of 1.05 GR, a GR value ([4]; 0.0003162 µM) of 1.11 GR and a GR value ([4]; 0.001 µM) of 1.06 GR. It also gave a GR value ([4]; 0.003162 µM) of 1.05 GR, a GR value ([4]; 0.01 µM) of 0.907 GR and a GR value ([4]; 0.03162 µM) of -0.453 GR. It also gave a GR value ([4]; 0.1 µM) of -0.581 GR, a GR value ([4]; 0.3162 µM) of -0.571 GR and a GR value ([4]; 1 µM) of -0.53 GR. For the same cell line, the GR value (LEE011/Ribociclib; 0.001 µM) was 0.927 GR, the GR value (LEE011/Ribociclib; 0.003162 µM) was 0.816 GR and the GR value (LEE011/Ribociclib; 0.01 µM) was 0.661 GR. For the same cell line, the GR value (LEE011/Ribociclib; 0.03162 µM) was 0.649 GR, the GR value (LEE011/Ribociclib; 0.1 µM) was 0.481 GR and the GR value (LEE011/Ribociclib; 0.3162 µM) was 0.514 GR. The GR value (LEE011/Ribociclib; 1 µM) was 0.528 GR, the GR value (LEE011/Ribociclib; 3.162 µM) was 0.394 GR and the GR value (LEE011/Ribociclib; 10 µM) was 0.425 GR. The GR value (THZ531; 0.0001 µM) was 0.957 GR, the GR value (THZ531; 0.0003162 µM) was 0.973 GR and the GR value (THZ531; 0.001 µM) was 0.939 GR. For the same cell line, the GR value (THZ531; 0.003162 µM) was 1.11 GR, the GR value (THZ531; 0.01 µM) was 0.84 GR and the GR value (THZ531; 0.03162 µM) was 0.788 GR. The GR value (THZ531; 0.1 µM) was 0.153 GR, the GR value (THZ531; 0.3162 µM) was -0.45 GR and the GR value (THZ531; 1 µM) was -0.532 GR. For the same cell line, the GR value (Flavopiridol [5]; 0.0001 µM) was 1.06 GR, the GR value (Flavopiridol [5]; 0.0003162 µM) was 1.06 GR and the GR value (Flavopiridol [5]; 0.001 µM) was 0.963 GR. It also gave a GR value (Flavopiridol [5]; 0.003162 µM) of 0.955 GR, a GR value (Flavopiridol [5]; 0.01 µM) of 1.01 GR and a GR value (Flavopiridol [5]; 0.03162 µM) of 1.08 GR. It also gave a GR value (Flavopiridol [5]; 0.1 µM) of 0.909 GR, a GR value (Flavopiridol [5]; 0.3162 µM) of 0.239 GR and a GR value (Flavopiridol [5]; 1 µM) of -0.603 GR.
